The text below walks through data of ChEMBL document CHEMBL3991601, “The target landscape of clinical kinase drugs” (Science, 2017).

SMILES strings stand for the structures. Active and inactive are the calls of the source.

The target in one assay is LIM domain kinase 1 (Homo sapiens, UniProt P53667).
For assay [1], the target named is Mitogen-activated protein kinase 11 (Homo sapiens, UniProt Q15759).
The target in assay [2] is Putative heat shock protein HSP 90-beta 2 (Homo sapiens, UniProt Q58FF8).
Assay [3] has as its target T1, Interleukin-1 receptor-associated kinase 3 (Homo sapiens, UniProt Q9Y616).
T1 sequence (Q9Y616 whole entry): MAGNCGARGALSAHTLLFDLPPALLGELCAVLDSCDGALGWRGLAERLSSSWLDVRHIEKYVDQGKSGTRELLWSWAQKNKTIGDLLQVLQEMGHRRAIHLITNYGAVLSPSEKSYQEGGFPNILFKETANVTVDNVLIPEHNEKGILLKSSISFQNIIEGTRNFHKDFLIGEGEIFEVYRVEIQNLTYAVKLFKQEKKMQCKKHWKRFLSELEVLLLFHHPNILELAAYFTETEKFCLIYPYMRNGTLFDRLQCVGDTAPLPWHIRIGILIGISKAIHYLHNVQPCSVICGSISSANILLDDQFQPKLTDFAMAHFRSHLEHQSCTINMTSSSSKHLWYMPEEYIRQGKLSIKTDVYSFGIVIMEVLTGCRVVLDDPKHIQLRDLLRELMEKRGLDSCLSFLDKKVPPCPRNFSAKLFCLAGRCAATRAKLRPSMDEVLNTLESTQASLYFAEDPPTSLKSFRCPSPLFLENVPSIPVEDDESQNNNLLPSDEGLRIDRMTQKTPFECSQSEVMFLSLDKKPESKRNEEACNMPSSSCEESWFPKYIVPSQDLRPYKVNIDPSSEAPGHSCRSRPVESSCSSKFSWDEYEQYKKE

Assay [4] concerns the target T2, Succinate--CoA ligase [ADP-forming] subunit beta, mitochondrial (Homo sapiens, UniProt Q9P2R7).
T2 sequence (Q9P2R7 whole entry): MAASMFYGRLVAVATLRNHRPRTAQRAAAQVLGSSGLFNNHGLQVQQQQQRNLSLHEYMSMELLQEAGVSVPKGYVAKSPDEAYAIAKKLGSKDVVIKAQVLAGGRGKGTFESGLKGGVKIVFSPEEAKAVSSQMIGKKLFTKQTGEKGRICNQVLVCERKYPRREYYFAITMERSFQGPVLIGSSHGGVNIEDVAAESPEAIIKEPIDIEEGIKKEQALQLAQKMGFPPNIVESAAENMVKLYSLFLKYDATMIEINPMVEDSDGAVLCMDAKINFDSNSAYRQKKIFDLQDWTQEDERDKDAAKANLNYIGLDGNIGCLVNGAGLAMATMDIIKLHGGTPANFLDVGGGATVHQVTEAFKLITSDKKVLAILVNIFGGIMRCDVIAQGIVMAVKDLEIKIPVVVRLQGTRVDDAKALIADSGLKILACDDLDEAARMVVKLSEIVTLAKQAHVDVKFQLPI

For the next assay, the target named is T3, Pyridoxal kinase (Homo sapiens, UniProt O00764).
T3 sequence (O00764 whole entry): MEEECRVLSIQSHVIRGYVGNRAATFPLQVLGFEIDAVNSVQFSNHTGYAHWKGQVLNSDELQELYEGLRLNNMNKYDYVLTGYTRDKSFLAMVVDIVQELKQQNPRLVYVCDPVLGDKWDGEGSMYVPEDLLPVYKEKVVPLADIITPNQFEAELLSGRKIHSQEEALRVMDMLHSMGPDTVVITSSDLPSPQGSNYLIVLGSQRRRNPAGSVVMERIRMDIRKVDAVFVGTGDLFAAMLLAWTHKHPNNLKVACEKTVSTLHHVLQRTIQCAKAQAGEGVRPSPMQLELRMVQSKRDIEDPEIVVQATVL

The target of assay [5] is Structural maintenance of chromosomes protein 2 (Homo sapiens, UniProt O95347).
Assay [6] deals with Serine/threonine-protein kinase pim-1 (Homo sapiens, UniProt P11309).
Assay [7] deals with T4, Serine/threonine-protein kinase A-Raf (Homo sapiens, UniProt P10398).
T4 sequence (P10398 whole entry): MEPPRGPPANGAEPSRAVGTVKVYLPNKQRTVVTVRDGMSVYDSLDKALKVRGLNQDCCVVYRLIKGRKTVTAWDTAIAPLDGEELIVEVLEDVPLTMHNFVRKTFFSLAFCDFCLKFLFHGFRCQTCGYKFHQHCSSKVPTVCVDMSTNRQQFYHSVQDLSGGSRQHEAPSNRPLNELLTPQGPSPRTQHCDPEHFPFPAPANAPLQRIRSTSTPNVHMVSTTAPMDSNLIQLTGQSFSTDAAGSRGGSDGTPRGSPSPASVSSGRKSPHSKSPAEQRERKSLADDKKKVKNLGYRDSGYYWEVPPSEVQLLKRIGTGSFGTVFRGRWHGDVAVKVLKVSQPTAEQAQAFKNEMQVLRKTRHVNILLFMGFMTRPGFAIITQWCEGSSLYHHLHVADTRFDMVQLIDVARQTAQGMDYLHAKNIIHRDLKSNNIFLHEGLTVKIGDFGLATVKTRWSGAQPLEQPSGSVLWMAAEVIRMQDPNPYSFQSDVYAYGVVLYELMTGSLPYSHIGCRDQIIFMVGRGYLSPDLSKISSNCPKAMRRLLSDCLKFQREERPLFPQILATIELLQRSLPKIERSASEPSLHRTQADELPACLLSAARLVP

Assay [8] has as its target T5, Very long-chain specific acyl-CoA dehydrogenase, mitochondrial (Homo sapiens, UniProt P49748).
T5 sequence (P49748 whole entry): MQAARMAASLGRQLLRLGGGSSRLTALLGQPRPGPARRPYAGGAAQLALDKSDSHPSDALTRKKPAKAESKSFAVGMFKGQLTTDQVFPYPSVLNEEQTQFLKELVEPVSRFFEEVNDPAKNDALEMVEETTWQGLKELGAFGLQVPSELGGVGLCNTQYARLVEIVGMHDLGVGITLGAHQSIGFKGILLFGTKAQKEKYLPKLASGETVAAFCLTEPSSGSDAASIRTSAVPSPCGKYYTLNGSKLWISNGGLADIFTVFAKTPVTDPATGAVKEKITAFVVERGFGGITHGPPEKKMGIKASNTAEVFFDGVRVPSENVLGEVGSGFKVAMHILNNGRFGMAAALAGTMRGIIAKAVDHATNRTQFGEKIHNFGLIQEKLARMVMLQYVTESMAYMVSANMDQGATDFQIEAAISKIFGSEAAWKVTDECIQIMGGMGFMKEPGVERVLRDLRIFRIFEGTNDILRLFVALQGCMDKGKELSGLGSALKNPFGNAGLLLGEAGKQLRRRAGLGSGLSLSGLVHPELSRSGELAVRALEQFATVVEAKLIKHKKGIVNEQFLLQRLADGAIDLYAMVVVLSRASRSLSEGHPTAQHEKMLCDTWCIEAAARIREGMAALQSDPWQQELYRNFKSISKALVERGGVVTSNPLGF
Further: in the data inactive means no Kd found up to 30 µM.

Sequence of Serine/threonine-protein kinase pim-1 (P11309 whole entry): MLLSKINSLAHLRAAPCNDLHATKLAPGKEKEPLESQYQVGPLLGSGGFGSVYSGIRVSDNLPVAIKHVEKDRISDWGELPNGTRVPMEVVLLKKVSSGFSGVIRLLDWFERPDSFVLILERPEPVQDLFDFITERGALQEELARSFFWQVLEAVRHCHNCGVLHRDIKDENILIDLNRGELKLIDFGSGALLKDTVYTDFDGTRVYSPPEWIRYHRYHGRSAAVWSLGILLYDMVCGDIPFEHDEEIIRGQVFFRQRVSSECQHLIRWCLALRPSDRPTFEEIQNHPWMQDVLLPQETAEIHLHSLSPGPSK
Sequence of Structural maintenance of chromosomes protein 2 (O95347 whole entry): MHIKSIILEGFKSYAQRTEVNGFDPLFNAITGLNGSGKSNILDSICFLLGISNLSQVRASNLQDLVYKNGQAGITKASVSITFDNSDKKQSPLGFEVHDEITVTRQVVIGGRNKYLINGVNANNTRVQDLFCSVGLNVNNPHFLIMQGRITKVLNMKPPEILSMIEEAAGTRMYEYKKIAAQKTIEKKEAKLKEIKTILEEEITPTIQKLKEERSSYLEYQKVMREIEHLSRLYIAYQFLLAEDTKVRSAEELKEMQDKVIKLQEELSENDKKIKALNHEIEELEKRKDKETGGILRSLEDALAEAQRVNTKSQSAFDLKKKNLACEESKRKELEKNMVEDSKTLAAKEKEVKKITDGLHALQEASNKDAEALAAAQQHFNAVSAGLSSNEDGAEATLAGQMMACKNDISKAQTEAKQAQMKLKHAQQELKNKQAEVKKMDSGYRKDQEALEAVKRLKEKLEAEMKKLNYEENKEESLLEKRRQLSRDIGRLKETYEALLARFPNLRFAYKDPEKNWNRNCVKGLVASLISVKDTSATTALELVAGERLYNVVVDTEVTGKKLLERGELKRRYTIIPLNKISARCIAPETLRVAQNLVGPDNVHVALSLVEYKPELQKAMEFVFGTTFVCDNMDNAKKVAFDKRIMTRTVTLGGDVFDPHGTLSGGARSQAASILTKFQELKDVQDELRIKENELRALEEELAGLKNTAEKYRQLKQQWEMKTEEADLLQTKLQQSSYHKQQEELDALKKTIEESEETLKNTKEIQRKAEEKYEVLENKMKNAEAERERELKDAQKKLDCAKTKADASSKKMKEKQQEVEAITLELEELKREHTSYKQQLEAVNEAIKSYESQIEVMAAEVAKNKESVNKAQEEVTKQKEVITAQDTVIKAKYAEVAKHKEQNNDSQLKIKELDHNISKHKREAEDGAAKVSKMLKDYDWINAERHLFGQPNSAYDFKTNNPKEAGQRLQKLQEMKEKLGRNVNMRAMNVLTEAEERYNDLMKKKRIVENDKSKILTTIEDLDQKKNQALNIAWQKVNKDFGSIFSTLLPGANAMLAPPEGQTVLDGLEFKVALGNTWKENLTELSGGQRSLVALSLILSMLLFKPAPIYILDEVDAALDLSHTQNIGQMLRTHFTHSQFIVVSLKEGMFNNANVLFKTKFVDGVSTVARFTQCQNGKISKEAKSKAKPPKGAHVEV
Sequence of LIM domain kinase 1 (P53667 whole entry, the tested form may be a part): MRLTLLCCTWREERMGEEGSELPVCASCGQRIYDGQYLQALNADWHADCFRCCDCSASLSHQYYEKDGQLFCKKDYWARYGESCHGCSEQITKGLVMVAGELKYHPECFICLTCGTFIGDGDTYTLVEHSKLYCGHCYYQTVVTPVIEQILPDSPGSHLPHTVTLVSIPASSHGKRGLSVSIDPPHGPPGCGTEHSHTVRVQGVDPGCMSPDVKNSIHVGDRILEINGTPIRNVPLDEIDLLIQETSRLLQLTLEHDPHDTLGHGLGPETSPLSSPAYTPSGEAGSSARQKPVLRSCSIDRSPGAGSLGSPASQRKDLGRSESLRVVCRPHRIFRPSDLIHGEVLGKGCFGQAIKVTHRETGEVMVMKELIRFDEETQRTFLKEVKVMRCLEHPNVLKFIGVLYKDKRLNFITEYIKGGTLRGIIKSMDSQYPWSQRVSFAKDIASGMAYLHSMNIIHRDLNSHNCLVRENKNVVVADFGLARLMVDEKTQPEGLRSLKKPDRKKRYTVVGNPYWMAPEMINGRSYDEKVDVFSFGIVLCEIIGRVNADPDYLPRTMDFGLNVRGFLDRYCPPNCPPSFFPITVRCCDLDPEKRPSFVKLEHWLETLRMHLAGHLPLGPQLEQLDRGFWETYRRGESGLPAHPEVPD
Sequence of Mitogen-activated protein kinase 11 (Q15759 whole entry): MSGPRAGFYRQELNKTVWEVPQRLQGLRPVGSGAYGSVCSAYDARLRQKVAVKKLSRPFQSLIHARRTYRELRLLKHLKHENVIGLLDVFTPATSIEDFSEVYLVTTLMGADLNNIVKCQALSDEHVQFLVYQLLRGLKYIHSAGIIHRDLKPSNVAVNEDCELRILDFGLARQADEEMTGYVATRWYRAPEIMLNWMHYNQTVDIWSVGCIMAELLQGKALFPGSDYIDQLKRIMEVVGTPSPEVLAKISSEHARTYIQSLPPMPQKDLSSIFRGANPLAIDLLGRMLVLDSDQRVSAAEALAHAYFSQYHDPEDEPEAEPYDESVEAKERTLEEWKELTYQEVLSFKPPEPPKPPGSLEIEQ
Sequence of Putative heat shock protein HSP 90-beta 2 (Q58FF8 whole entry): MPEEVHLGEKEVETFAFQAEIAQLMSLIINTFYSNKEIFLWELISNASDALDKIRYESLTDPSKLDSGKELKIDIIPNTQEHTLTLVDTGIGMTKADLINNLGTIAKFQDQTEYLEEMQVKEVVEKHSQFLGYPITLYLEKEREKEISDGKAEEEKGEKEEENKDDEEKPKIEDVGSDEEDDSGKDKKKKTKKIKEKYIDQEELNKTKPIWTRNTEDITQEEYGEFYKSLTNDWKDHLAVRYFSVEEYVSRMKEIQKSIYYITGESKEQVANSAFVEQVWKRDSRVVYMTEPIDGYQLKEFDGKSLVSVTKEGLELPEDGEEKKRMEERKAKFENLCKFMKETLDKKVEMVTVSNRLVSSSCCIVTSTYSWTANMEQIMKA

Turning to `CC[C@@H]1C(=O)N(C)c2cnc(Nc3ccc(C(=O)N[C@H]4CC[C@H](N5CCN(CC6CC6)CC5)CC4)cc3OC)nc2N1C(C)C` [VOLASERTIB], the Kd on LIM domain kinase 1 is > 30 µM (inactive); in [1], > 30 µM (inactive); in assay [2] it was > 30 µM (inactive); in [3], > 30 µM (inactive); in assay [4], > 30 µM (inactive); at Pyridoxal kinase, 0.286 µM (active). Besides, the Kd in assay [5], in assay [6], in [7] and in [8] was > 30 µM (inactive) throughout.

Consider `Cc1ccc(S(=O)(=O)Nc2nc3ccccc3nc2Nc2ccc3nsnc3c2)cc1`, for which the Kd (on LIM domain kinase 1; in assay [1]; in assay [3]; in assay [4]; at Pyridoxal kinase; in assay [5]) was > 30 µM (inactive) in each case. Moreover, the Kd in [6], in assay [7] and in assay [8] was > 30 µM (inactive) each time.

For the compound `Cn1cc(-c2ccc(F)c(C(F)(F)F)c2)nc1C1CCN(c2ncnc3[nH]ncc23)CC1` [LY-2584702], the Kd (at LIM domain kinase 1; in [1]; in assay [2]; in assay [3]; in assay [4]; on Pyridoxal kinase) was > 30 µM (inactive) in each case. Also, the Kd in [5], in assay [6], in assay [7] and in assay [8] was > 30 µM (inactive) in each case.

For the compound `CCn1c(=O)c(-c2cc[nH]n2)cc2c(C)nc(N)nc21` [VOXTALISIB], the Kd (at LIM domain kinase 1; in assay [1]; in assay [2]; in assay [3]; in [4]; on Pyridoxal kinase) was > 30 µM (inactive) in each case. Further, the Kd in assay [5], in assay [6], in assay [7] and in assay [8] was > 30 µM (inactive) each time.

Turning to `COc1cc(CCc2cc(NC(=O)c3ccc(N4C[C@@H](C)N[C@@H](C)C4)cc3)n[nH]2)cc(OC)c1` [AZD-4547], the Kd (on LIM domain kinase 1; in [1]; in assay [2]; in [3]; at Pyridoxal kinase; in assay [5]) was > 30 µM (inactive) each time. Also, the Kd in assay [6], in assay [7] and in [8] was > 30 µM (inactive) each time.

Regarding `C=CC(=O)N1CCC(Oc2cc3c(Nc4ccc(Cl)c(Cl)c4F)ncnc3cc2OC)CC1` [POZIOTINIB], the Kd (on LIM domain kinase 1; in assay [1]; in [3]; in assay [4]; on Pyridoxal kinase; in [5]) was > 30 µM (inactive) throughout. The Kd in assay [6], in assay [7] and in assay [8] was > 30 µM (inactive) throughout.

In the case of `CNC(=O)c1cc(Oc2ccc(NC(=O)Nc3ccc(Cl)c(C(F)(F)F)c3)c(F)c2)ccn1` [REGORAFENIB], the Kd on LIM domain kinase 1 was 0.616 µM (active); in assay [1], 1.91 µM (active); in assay [3], > 30 µM (inactive); in assay [4], > 30 µM (inactive); at Pyridoxal kinase, > 30 µM (inactive); in assay [5], > 30 µM (inactive). The Kd in assay [6], in [7] and in assay [8] was > 30 µM (inactive) in each case.

For orientation: Kd means the constant that tells how readily two partners part at equilibrium.
